pIC50: −log10 of the molar value. In brackets after ≈: the same amount, converted by molar mass. Several values for one entry are separate records, joined by “and”; a condition that tells them apart may be missing. Equal values may be shown once. Read-outs that look alike come from different tables or passages of the source. Marks after values point to notes of the source that are not given here.
How the values were obtained:
MRSE 35984 = experiment: MIC, broth microdilution (CLSI); conditions: for MRSE 35984 MIC: 16 to 18 hours at 37° C.
[1] = tested on: M. tuberculosis H37Ra (ATCC 25177); experiment: MIC assay for Mycobacterium tuberculosis; format: cell-based; conditions: read-out: MtB H37Ra MIC
Protocol: (§1) The culture was then diluted with fresh medium until an OD600 of 0.01 was reached. […] The final DMSO concentration was maintained at 0.5%. […] Three rows were reserved for each compound. […] OD600 absorbance was recorded using SPECTRAMAX M5 (Molecular Devices). Data obtained from three independent experiments were analyzed using Excel.
as §1, with “SpectraMax” for “SPECTRAMAX”

MRSA BAA-1707 biofilms = experiment: Calgary Biofilm Device (CBD) assay, MBC/MBEC; conditions: CBD; for MRSA BAA-1707 MBEC: biofilm eradication; for MRSA BAA-1707 MBC: planktonic killing
MRSE 35984 biofilms = experiment: Calgary Biofilm Device (CBD) assay, MBC/MBEC; conditions: for MRSE 35984 MBEC / MRSE 35984 MBC: CBD; for MRSE 35984 MBEC: biofilm eradication; for MRSE 35984 MBC: planktonic killing
VRE 700221 = experiment: MIC, broth microdilution (CLSI); conditions: 16 to 18 hours at 37° C.
MRSA-2 biofilms = experiment: Calgary Biofilm Device (CBD) assay, MBC/MBEC; conditions: for MRSA-2 MBEC / MRSA-2 MBC: CBD; for MRSA-2 MBEC: biofilm eradication; for MRSA-2 MBC: planktonic killing
MRSA BAA-44 biofilms = experiment: Calgary Biofilm Device (CBD) assay, MBC/MBEC
VRE 700221 biofilms = experiment: Calgary Biofilm Device (CBD) assay, MBC/MBEC; conditions: CBD; for VRE 700221 MBC: planktonic killing
MRSA, MRSE, and VRE = experiment: MIC assays against MRSA, MRSE, and VRE (all strains); conditions: in words
MRSA BAA-1707 [2] = experiment: MIC, broth microdilution (CLSI); conditions: 16 to 18 hours at 37° C.; 0.10 = lowest concentration tested
MRSA-2 = experiment: MIC, broth microdilution (CLSI); conditions: for MRSA-2 MIC: 16 to 18 hours at 37° C.
MRSA BAA-1707 [3] = experiment: Metal(II)-cation co-treatment MIC assay; format: cell-based; conditions: Staphylococcus aureus, read-out: MIC w/ Mg2+

SMILES: Oc1c(Br)cc(Br)c2nc3ccccc3nc12 [Compound 1A]
- MRSE 35984 MIC (MRSE 35984): 1.17^a μM and 1.17 μM
- pIC50 (HeLa cells): < 4.00
- MIC [1]: 25 µM (≈ 8.85 µg/mL)
- MRSA BAA-1707 MBEC (MRSA BAA-1707 biofilms): 150 µM
- MRSA BAA-1707 MBC (MRSA BAA-1707 biofilms): 37.5 µM and 18.8 µM
- MRSE 35984 MBEC (MRSE 35984 biofilms): 100 µM
- MRSE 35984 MBC (MRSE 35984 biofilms): 50 µM
- VRE 700221 MIC (VRE 700221): 6.25 µM
- MRSA-2 MBEC (MRSA-2 biofilms): 100 µM
- MRSA-2 MBC (MRSA-2 biofilms): 50 µM
- MRSA BAA-44 MBEC (MRSA BAA-44 biofilms; biofilm eradication): 150 µM
- MRSA BAA-44 MBC (MRSA BAA-44 biofilms; planktonic killing): 375 µM
- VRE 700221 MBC (VRE 700221 biofilms): 23.5 µM

SMILES: O=C(OCCSSCCOC(=O)c1ccccc1)OCOc1c(Br)cc(Br)c2nc3ccccc3nc12 [85A]
- activity in MIC assays (MRSA, MRSE, and VRE): no antibacterial activity against any pathogen tested

SMILES: CC(C)(C)c1ccc2nc3c(O)c(Br)cc(Br)c3nc2c1 [Compound 55A]
- MRSE 35984 MIC (MRSE 35984): 0.1^b μM
- MRSA BAA-1707 MIC (MRSA BAA-1707 [2]): 0.1^b μM
- MRSA-2 MIC (MRSA-2): 0.1^b μM
- VRE 700221 MIC (VRE 700221): 0.1^b μM
- Hemolysis at 200 μM (human red blood cells): ≤1%
- MRSA-2 MBEC (MRSA-2 biofilms): 3.13/3.13 μM
- MRSA-2 MBC (MRSA-2 biofilms): 3.13/3.13 μM

SMILES: Oc1cccc2cccnc12 [8-OHQ, 8-hydroxyquinoline]
- MIC (MRSA BAA-1707 [3]): 6.25 µM

SMILES: [H]/N=C(/N)N[C@H]1[C@H](O)[C@@H](O)[C@H](O[C@@H]2O[C@@H](C)[C@](O)(C=O)[C@H]2O[C@@H]2O[C@@H](CO)[C@H](O)[C@@H](O)[C@@H]2NC)[C@@H](N/C(N)=N\[H])[C@@H]1O [streptomycin, reference compound]
- MIC ([1]; Mycobacterium tuberculosis, 168 h): 1.32 µM (≈ 0.768 µg/mL)

SMILES: Cc1ccc2nc3c(O)ccc(Br)c3nc2c1 [Compound 66A]
- MRSE 35984 MIC (MRSE 35984): 12.5 µM
- MRSA BAA-1707 MIC (MRSA BAA-1707 [2]): 12.5 ^ μM
- MIC [1]: 25 µM (≈ 7.23 µg/mL)
- VRE 700221 MIC (VRE 700221): 25 µM

SMILES: CO[C@H]1/C=C/O[C@@]2(C)Oc3c(C)c(O)c4c(O)c(c(/C=N/N5CCN(C)CC5)c(O)c4c3C2=O)NC(=O)/C(C)=C\C=C\[C@H](C)[C@H](O)[C@@H](C)[C@@H](O)[C@@H](C)[C@H](OC(C)=O)[C@@H]1C [Rifampin, reference compound]
- MIC (MRSE 35984; Staphylococcus epidermidis, MRSE, read-out: MRSE 35984 MIC, 16 to 18 hours at 37° C.): 0.1 µM (≈ 0.0823 µg/mL)
- MIC (MRSA-2; Staphylococcus aureus, MRSA, read-out: MRSA-2 MIC): 0.1 µM (≈ 0.0823 µg/mL)
- MBC (MRSE 35984 biofilms; Staphylococcus epidermidis, MRSE, read-out: MRSE 35984 MBC): 3 µM (≈ 2.47 µg/mL)
- MRSA-2 MBEC (MRSA-2 biofilms): 46.9 µM
- MBC (MRSA-2 biofilms; Staphylococcus aureus, MRSA, read-out: MRSA-2 MBC): 2 µM (≈ 1.65 µg/mL)

SMILES: CCN(CC)c1ccc2nc3c(O)c(Br)cc(Br)c3nc2c1Br [Compound 64A]
- MRSE 35984 MIC (MRSE 35984): 0.1^b μM
- MRSA BAA-1707 MIC (MRSA BAA-1707 [2]): 0.15^a μM
- MRSA-2 MIC (MRSA-2): 0.3^a μM
- MRSA BAA-1707 MBC (MRSA BAA-1707 biofilms): 9.38 µM
- MRSE 35984 MBEC (MRSE 35984 biofilms): 6.25 µM
- MRSE 35984 MBC (MRSE 35984 biofilms): 9.38 µM
- VRE 700221 MIC (VRE 700221): 0.3^a μM
- Hemolysis at 200 μM (human red blood cells): ≤1%
- VRE 700221 MBC (VRE 700221 biofilms): 2.35 µM

SMILES: Oc1c(Br)cc(Br)c2nc3cc(Cl)ccc3nc12 [Compound 61A]
- MRSE 35984 MIC (MRSE 35984): 0.1^b μM
- MRSA-2 MIC (MRSA-2): 0.1^b μM
- Hemolysis at 200 μM (human red blood cells): ≤1%
- MRSA-2 MBEC (MRSA-2 biofilms): 25 µM
- MRSA-2 MBC (MRSA-2 biofilms): 6.25 µM

SMILES: CS(=O)(=O)N1CCN(C(=O)Oc2c(Br)cc(Br)c3nc4ccccc4nc23)C1=O [Compound 76A]
- MRSE 35984 MIC (MRSE 35984): 1.56 µM
- pIC50 (HeLa cells): < 4.00
- MRSA BAA-1707 MBEC (MRSA BAA-1707 biofilms): 75 µM
- MRSA BAA-1707 MBC (MRSA BAA-1707 biofilms): 37.5 µM
- MRSE 35984 MBEC (MRSE 35984 biofilms): 37.5 µM
- MRSE 35984 MBC (MRSE 35984 biofilms): 18.8 µM
- VRE 700221 MIC (VRE 700221): 3.13 µM
- Hemolysis at 200 μM (human red blood cells): ≤1%
- VRE 700221 MBEC (VRE 700221 biofilms; biofilm eradication): 9.38^a/9.38^a μM
- VRE 700221 MBC (VRE 700221 biofilms): 9.38^a/9.38^a μM

SMILES: COCCOCCOCCOCCOC(=O)Oc1c(Br)cc(Br)c2nc3ccccc3nc12 [HP 1-24]
- HeLa cell cytotoxicity at 100 μM (HeLa cells): no HeLa cell cytotoxicity
- MIC ([1]; Mycobacterium tuberculosis, 168 h, seven days at 37° C.): 25 µM (≈ 14.7 µg/mL)
- Hemolysis at 200 μM (human red blood cells; human, 1 h, 200 μM, pH 7.2): 2.4%

SMILES: CCc1ccc2nc3c(O)ccc(Br)c3nc2c1 [Compound 67A]
- MRSE 35984 MIC (MRSE 35984): 9.38^a μM
- pIC50 (HeLa cells): < 4.00
- MIC [1]: 25 µM (≈ 7.58 µg/mL)
- VRE 700221 MIC (VRE 700221): 12.5 µM

SMILES: O=C(OCCOCCOCCOCCO)OCOc1c(Br)cc(Br)c2nc3ccccc3nc12 [82A]
- activity in MIC assays (MRSA, MRSE, and VRE): no activity in MIC assays

Reference: patent publication US11053205B2, “Phenazine derivatives as antimicrobial agents” (University of Florida Research Foundation, Incorporated, priority 2017, dated 2021)
